Source: US12331022B2, “Spiropiperidine allosteric modulators of nicotinic acetylcholine receptors” (Merck Sharp & Dohme LLC, priority 2019, dated 2025)
Where two headings read alike, the source gives them in different places.

Target: T1, human α7 nAChR (Homo sapiens, UniProt P36544)
T1 construct: host or cells: HEK
Test: Automated patch-clamp electrophysiology functional assay (Assay A)
Assay type: cell-based
Conditions: HEK cell line stably expressing human RIC-3 and human α7, IonFlux HT whole-cell population patch, with or without 40 μM acetylcholine
Method: The α7 nAChR positive allosteric modulator (PAM) activity of the present compounds may be tested using assays known in the art. The α7 nAChR PAMs described herein have activities in an automated patch-clamp electrophysiology functional assay as described in the examples. The assay was performed using the IonFlux HT in a whole-cell, population patch configuration. See Golden et al. Assay Drug Dev. Technol. (2011) 9:608-619. The compounds were assessed for their ability to modulate the function of the human α7 nAChR stably expressed in a HEK cell line both in the presence, and in the absence of the natural α7 agonist acetylcholine. By performing a series of such measurements at different concentrations, the effective concentration of the α7 nAChR PAMs (EC50) was determined. See Spencer et al. Assay Drug Dev. Technol. (2012) 10:313-324.
Direct activation of α7 (agonism), and potentiation of acetylcholine-evoked α7 currents was determined as follows:
Automated patch-clamp electrophysiology was performed using the IonFlux HT (Fluxion Biosciences Inc., San Francisco, CA) in the whole-cell, population patch configuration. Test compounds were assessed for their ability to modulate the function of the α7 nicotinic acetylcholine receptor both in the presence, and in the absence of the natural α7 agonist acetylcholine. A HEK cell line stably expressing both human RIC-3 and human α7 (PrecisION hnAChR α7/RIC-3, Eurofins Pharma, St. Charles, MO) was cultured in 175 cm^2 triple-layer tissue culture flasks to no more than 90% confluency in DMEM/F-12 growth media supplemented with 10% heat-inactivated fetal bovine serum, 1% non-essential amino acids, 0.625 μg/mL Puromycin, and 400 μg/mL Geneticin. Immediately prior to assay, cells were detached by first aspirating growth media, rinsing with Dulbecco's phosphate buffered saline, and then adding 10 mL of Accutase (Innovative Cell Technologies, San Diego, CA) to the flask and then incubating at 37° C. for 5 minutes. Detached cells were then recovered by the addition of 40 mL of CHO-serum-free media supplemented with 25 mM HEPES, and rocked gently in a 50 mL conical tube for 20 minutes prior to patch-clamp assay. After recovery, cells were pelleted by centrifugation at 1,000 RPM for 1 minute in a compact bench top centrifuge; recovery media was aspirated and cells were resuspended in external recording solution (150 mM NaCl, 5 mM KCl, 2 mM CaCl2, 1 mM MgCl2, 10 mM HEPES, 12 mM dextrose) to a density of 5.0×10^6 cells/mL. The cell suspension was added to the cell inlet wells on an IonFlux HT population patch plate which had previously been rinsed and primed with deionized H2O. Test compounds were serially diluted in DMSO and then resuspended to the final test concentration in external recording solution, with, or without 40 μM acetylcholine added to the external recording solution; test compounds were then transferred to the IonFlux HT population patch plate. Internal recording solution (110 mM TrisPO4, 28 mM TrisBase, 0.1 mM CaCl2, 2 mM MgCl2, 11 mM EGTA, 4 mM MgATP) was added to the internal recording solution inlet wells on the IonFlux HT patch plate previously loaded with cells and test compounds, and the plate loaded into the IonFlux HT instrument. A protocol was executed on the IonFlux HT to trap the cells, break into the cells, and establish the whole-cell recording configuration; cells were voltage-clamped at a holding potential of −60 mV for the duration of the experiment, all experiments were conducted at room temperature, and the IonFlux HT injection pressure was 8 psi for solution applications. Upon establishing the whole-cell configuration, external recording solution was perfused into the recording chambers for 120 seconds and then 40 μM acetylcholine was applied for 1 second and immediately washed off with external recording solution for 60 seconds. […]

T1 sequence (P36544 23-502): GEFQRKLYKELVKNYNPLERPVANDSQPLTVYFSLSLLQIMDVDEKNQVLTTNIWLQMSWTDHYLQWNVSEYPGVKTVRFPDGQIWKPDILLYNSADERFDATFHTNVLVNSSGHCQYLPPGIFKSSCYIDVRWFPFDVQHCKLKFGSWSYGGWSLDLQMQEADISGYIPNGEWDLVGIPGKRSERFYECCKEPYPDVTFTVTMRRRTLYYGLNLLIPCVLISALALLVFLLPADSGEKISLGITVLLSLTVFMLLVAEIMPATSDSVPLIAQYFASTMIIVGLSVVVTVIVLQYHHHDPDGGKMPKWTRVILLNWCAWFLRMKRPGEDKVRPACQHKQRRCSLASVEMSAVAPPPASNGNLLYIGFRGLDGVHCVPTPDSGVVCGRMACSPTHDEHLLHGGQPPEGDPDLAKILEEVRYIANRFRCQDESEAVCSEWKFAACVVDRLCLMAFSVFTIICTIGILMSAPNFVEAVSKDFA

| EC50 (read-out: α7 nAChR EC50) [nM] | EC50 (read-out: α7 nAChR Potency) [nM] | SMILES |
| --- | --- | --- |
| 700 | 500 to 5000 | Cc1cc(OCC2CC23CCN(S(N)(=O)=O)CC3)n(-c2ccccc2)n1 (racemic) [Example A14, 1-{[(3-methyl-1-phenyl-1H-pyrazol-5-yl)oxy]methyl}-6-azaspiro[2.5]octane-6-sulfonamide] |
| 940 | 500 to 5000 | COc1cc(F)ccc1OC[C@@H]1CC12CCN(S(N)(=O)=O)CC2 [Example A6, (1R)-1-[(4-fluoro-2-methoxyphenoxy)methyl]-6-azaspiro[2.5]octane-6-sulfonamide] |
|  | 500 to 5000 | CC(C)(C)c1cccc(OC[C@@H]2CC23CCN(S(N)(=O)=O)CC3)n1 [Example A55, (1R)-1-{[(6-tert-butylpyridin-2-yl)oxy]methyl}-6-azaspiro[2.5]octane-6-sulfonamide] |
| 89 | ≤ 100 | NS(=O)(=O)N1CCC2(CC1)C(COc1cc(F)ccc1C(F)(F)F)C2(F)F (single isomer, unassigned) [Example A8, 1,1-difluoro-2-{[5-fluoro-2-(trifluoromethyl)phenoxy]methyl}-6-azaspiro[2.5]octane-6-sulfonamide] |
| 19 | ≤ 100 | NS(=O)(=O)N1CCC2(CC1)C(COc1cccc(OCC(F)(F)F)n1)C2(F)F (single isomer, unassigned) [Example A40, 1,1-difluoro-2-({[6-(2,2,2-trifluoroethoxy)pyridin-2-yl]oxy}methyl)-6-azaspiro[2.5]octane-6-sulfonamide] |
| 150 | 100 to 500 | NS(=O)(=O)N1CCC2(CC1)CC2COc1cccc(OC(F)F)c1 (racemic) [Example A23, 1-{[3-(difluoromethoxy)phenoxy]methyl}-6-azaspiro[2.5]octane-6-sulfonamide] |
| 11 | ≤ 100 | Cc1ccc(C)c(NC[C@@H]2C(F)(F)C23CCN(S(N)(=O)=O)CC3)c1 [Example A60, (2R)-2-{[(2,5-dimethylphenyl)amino]methyl}-1,1-difluoro-6-azaspiro[2.5]octane-6-sulfonamide] |
| 25 | ≤ 100 | COc1ccc(Cl)cc1OCC1C(F)(F)C12CCN(S(N)(=O)=O)CC2 (single isomer, unassigned) [Example A2, 2-[(5-chloro-2-methoxyphenoxy)methyl]-1,1-difluoro-6-azaspiro[2.5]octane-6-sulfonamide] |
|  | 500 to 5000 | NS(=O)(=O)N1CCC2(CC1)C[C@H]2C(=O)Nc1cccc(Cl)c1 [Example B2, (1R)—N-(3-chlorophenyl)-6-sulfamoyl-6-azaspiro[2.5]octane-1-carboxamide] |
|  | 5000 to 50000 | NS(=O)(=O)N1CCC2(CC1)C(CCc1ccc(F)cc1C(F)(F)F)C2(F)F (stereo not shown) [Example 18, 1,1-Difluoro-2-{2-[4-fluoro-2-(trifluoromethyl)phenyl]ethyl}-6-azaspiro[2.5]octane-6-sulfonamide] |
| 300 | 100 to 500 | NS(=O)(=O)N1CCC2(CC1)C[C@@H]2COc1cccc(OCC2CC2)n1 [Example A18, (1S)-1-({[6-(cyclopropylmethoxy)pyridin-2-yl]oxy}methyl)-6-azaspiro[2.5]octane-6-sulfonamide] |
| 1400 | 500 to 5000 | COc1ccc(Cl)cc1NC(=O)[C@H]1C(F)(F)C12CCN(S(N)(=O)=O)CC2 [Example B3, (1S)—N-(5-chloro-2-methoxyphenyl)-2,2-difluoro-6-sulfamoyl-6-azaspiro[2.5]octane-1-carboxamide] |
| 150 | 100 to 500 | NS(=O)(=O)N1CCC2(CC1)C(CSc1ccc(C(F)(F)F)cc1)C2(F)F (single isomer, unassigned) [Example A44, 1,1-difluoro-2-({[4-(trifluoromethyl)phenyl]sulfanyl}methyl)-6-azaspiro[2.5]octane-6-sulfonamide] |
| 130 | 100 to 500 | NS(=O)(=O)N1CCC2(CC1)C[C@H]2COc1cccc(OCC2CC2)n1 [Example A17, (1R)-1-({[6-(cyclopropylmethoxy)pyridin-2-yl]oxy}methyl)-6-azaspiro[2.5]octane-6-sulfonamide] |
